Drawing on patent US12338219B2, “Antimalarial agents” (Merck Sharp & Dohme LLC, priority 2019, dated 2025), this text covers EC50 for 51 molecules.

This experiment deals with parasites (ring stage parasites, parasite growth). Briefly: Parasite LDH growth assay (Parasite Assay), antiparasite potency. The class given is cell-based. Conditions: 72 hours growth, LDH readout, Table 3. As to the method: Assessing Antiparasite Potency in a Parasite LDH Growth Assay (Parasite Assay) The parasite stock was maintained at […] in RPMI-Hepes media buffered with sodium bicarbonate and supplemented with […]. […] On the day of assay set up, a blood smear of the parasite culture was Giemsa stained and counted. The parasitemia was adjusted to 0.7% rings and the haematocrit was diluted to 2% in RPMI-Hepes media buffered with sodium bicarbonate and supplemented with 500 heat inactivated human serum and 0.5% albumax. 30 ul of diluted parasites are then added into 10 ul of media+compound in pre-prepared Greiner TC assay plates. Parasite assay plates were placed in gassed humidified boxes in single layer and allowed to incubate at 37° C. for 72 hours. After 72 hours growth, assay plates are sealed with parafilm and frozen flat, in single file at −80° C. overnight. On the following day, assay plates are allowed to thaw at room temperature for 4 hours to which an LDH assay is performed to measure parasite growth.

A word on the EC50: it is the concentration needed to bring the measured effect to its halfway point. A low value points to higher potency in that assay. With `COCC[C@H]([C@@H]1C[C@H]1C(=O)NC1CC(C)(C)Oc2ccccc21)N1C(=N)NC(C)(C)CC1=O` (stereo partly drawn) [Example 23A], the concentration giving a half-maximal response (EC50) (72 h) was found to be 16 nM. `COCC[C@H]([C@@H]1C[C@H]1C(=O)NC1CC(C)(C)Oc2ccccc21)N1C(=N)NC(C)(C)CC1=O` (stereo partly drawn) [Example 23B] returned an EC50 of 15 nM. This counts as double-digit nanomolar.

For `COCC[C@H]([C@@H]1C[C@H]1C(=O)N[C@@H]1C[C@@H](C(F)(F)F)Oc2ccccc21)N1C(=N)NC(C)(C)CC1=O` [Example 24A], the EC50 is 3.4 nM.

`COCC[C@H]([C@@H]1C[C@H]1C(=O)N[C@H]1C[C@H](C(F)(F)F)Oc2ccccc21)N1C(=N)NC(C)(C)CC1=O` [Example 24B] came in with a concentration giving a half-maximal response (EC50) (72 h) of 2 nM.

For `COCC[C@H]([C@@H]1C[C@H]1C(=O)N[C@@H]1C[C@@H](C(F)(F)F)Oc2ccccc21)N1C(=N)NC(C)(C)CC1=O` [Example 24C], the EC50 turned out to be 120 nM. Turning to `CC1(C)CC(=O)N([C@H](c2cccnc2)[C@@H]2C[C@H]2C(=O)N[C@H]2CC(C)(C)Oc3ccccc32)C(=N)N1` [Example 26], it took 4.7 nM to reach a half-maximal effect (72 h) (EC50). The same measure, in the same setting: in the case of `CC1(C)CC(=O)N([C@H](c2cccnc2)[C@@H]2C[C@H]2C(=O)N[C@@H]2c3ccccc3OC(C)(C)[C@H]2O)C(=N)N1` [Example 27] it was 78 nM.

As to `CCC1(CC)CC(=O)N(C[C@@H]2C(C)[C@H]2C(=O)N[C@H]2C[C@H](C(F)(F)F)Oc3ccccc32)C(=N)N1` (stereo partly drawn) [Example 28A], where the note is “72 h”, a half-maximal effect (EC50) was put at 12 nM. `CCC1(CC)CC(=O)N(C[C@@H]2C(C)[C@H]2C(=O)N[C@H]2C[C@H](C(F)(F)F)Oc3ccccc32)C(=N)N1` (stereo partly drawn) [Example 28B] registered an EC50 of 14 nM. Turning to `CCC1(CC)CC(=O)N(CC2C(C(=O)N[C@H]3C[C@H](C(F)(F)F)Oc4ccccc43)C2(C)C)C(=N)N1` (stereo partly drawn) [Example 31A], the 50% effective concentration (EC50) (72 h) worked out at 215 nM. The same measure, in the same setting: in the case of `CC1(C)CC(=O)N([C@H](c2cccnc2)[C@@H]2C[C@H]2C(=O)N[C@H]2C[C@H](C(F)(F)F)Oc3ccccc32)C(=N)N1` [Example 32] it was 1.8 nM; in that of `CCC1(CC)CC(=O)N(C[C@@H]2C(C)[C@H]2C(=O)N[C@@H]2c3ccccc3C[C@H]2O)C(=N)N1` (stereo partly drawn) [Example 33], 76 nM. `CCC1(CC)CC(=O)N(C[C@H]2[C@H](C(=O)N[C@H]3CC(C)(C)Oc4ccccc43)C2(C)C)C(=N)N1` [Example 34] displayed a 50% effective concentration (EC50) (72 h) of 286 nM. Compared with the last molecule, the EC50 is about 3.8-fold higher. Same read-out and setting: next, `CCC1(CC)CC(=O)N(C[C@@H]2C(C)[C@H]2C(=O)NC2c3ccccc3OC2(C)C)C(=N)N1` (stereo partly drawn) [Example 36A]: 247 nM. As for `CCC1(CC)CC(=O)N(C[C@@H]2C(C)[C@H]2C(=O)NC2c3ccccc3OC2(C)C)C(=N)N1` (stereo partly drawn) [Example 36B], the concentration giving a half-maximal response (EC50) was determined as 301 nM.

On to `COc1ccc([C@H]([C@@H]2C[C@H]2C(=O)N[C@H]2C[C@H](C(F)(F)F)Oc3ccccc32)N2C(=N)NC(C)(C)CC2=O)cn1` [Example 37], for which the midpoint of the response (72 h), the EC50, lay at 1.2 nM. Same read-out and setting: in the case of `COc1ccc([C@H]([C@@H]2C[C@H]2C(=O)N[C@H]2CC(C)(C)Oc3ccccc32)N2C(=N)NC(C)(C)CC2=O)cn1` [Example 38] it was 6.5 nM; in that of `COc1ccc([C@H]([C@@H]2C[C@H]2C(=O)N[C@@H]2c3ccccc3OC(C)(C)[C@H]2O)N2C(=N)NC(C)(C)CC2=O)cn1` [Example 39], 10.1 nM; in that of `COc1cncc([C@H]([C@@H]2C[C@H]2C(=O)N[C@H]2CC(C)(C)Oc3ccccc32)N2C(=N)NC(C)(C)CC2=O)c1` [Example 40], 3.1 nM. Same read-out and setting: in the case of `COc1cncc([C@H]([C@@H]2C[C@H]2C(=O)N[C@H]2C[C@H](C(F)(F)F)Oc3ccccc32)N2C(=N)NC(C)(C)CC2=O)c1` [Example 41] it was 1.1 nM. On the same count and under the same terms, next, `COc1cncc([C@H]([C@@H]2C[C@H]2C(=O)N[C@@H]2c3ccccc3OC(C)(C)[C@H]2O)N2C(=N)NC(C)(C)CC2=O)c1` [Example 42]: 18.4 nM; `CC1(C)CC(=O)N([C@H](c2cccnc2)[C@H]2[C@H](C(=O)N[C@H]3C[C@H](C(F)(F)F)Oc4ccccc43)C2(C)C)C(=N)N1` [Example 43A]: 4 nM.

Consider `CC1(C)CC(=O)N([C@@H](c2cccnc2)[C@H]2[C@H](C(=O)N[C@H]3C[C@H](C(F)(F)F)Oc4ccccc43)C2(C)C)C(=N)N1` [Example 43B], for which, under “72 h”, the half-maximal effective concentration (EC50) was determined as 37 nM. Same read-out and setting: in the case of `CCC1(CC)CC(=O)N([C@@H](c2cccnc2)[C@H]2[C@H](C(=O)N[C@H]3C[C@H](C(F)(F)F)Oc4ccccc43)C2(C)C)C(=N)N1` [Example 44A] it was 8.3 nM; in that of `CCC1(CC)CC(=O)N([C@H](c2cccnc2)[C@H]2[C@H](C(=O)N[C@H]3C[C@H](C(F)(F)F)Oc4ccccc43)C2(C)C)C(=N)N1` [Example 44B], 0.9 nM; in that of `CC1(C)CC(=O)N([C@H](c2ccc(C#N)cc2)[C@@H]2C[C@H]2C(=O)N[C@H]2CC(C)(C)Oc3ccccc32)C(=N)N1` [Example 45A], 2.8 nM. On to `CC1(C)CC(=O)N([C@@H](c2ccc(C#N)cc2)[C@@H]2C[C@H]2C(=O)N[C@H]2CC(C)(C)Oc3ccccc32)C(=N)N1` [Example 45B], for which, where the note is “72 h”, the EC50 came to 220 nM. Molecule `CC1(C)CC(=O)N([C@H](c2ccc(C#N)cc2)[C@@H]2C[C@H]2C(=O)N[C@@H]2c3ccccc3OC(C)(C)[C@H]2O)C(=N)N1` [Example 46] showed a 50% effective concentration (EC50) (72 h) of 2.5 nM.

In turn, `CC1(C)CC(=O)N([C@@H](c2ccc(C#N)cc2)[C@@H]2C[C@H]2C(=O)N[C@H]2C[C@H](C(F)(F)F)Oc3ccccc32)C(=N)N1` [Example 47A] yielded an EC50 (72 h) of 155 nM. `CC1(C)CC(=O)N([C@H](c2ccc(C#N)cc2)[C@@H]2C[C@H]2C(=O)N[C@H]2C[C@H](C(F)(F)F)Oc3ccccc32)C(=N)N1` [Example 47B]: the EC50 (72 h) worked out at 0.9 nM. Still for that read-out and setting: in the case of `CCC1(CC)CC(=O)N([C@H](c2cccnc2)[C@H]2[C@H](C(=O)N[C@H]3CC(C)(C)Oc4ccccc43)C2(C)C)C(=N)N1` [Example 48A] it was 2.7 nM; in that of `CCC1(CC)CC(=O)N([C@@H](c2cccnc2)[C@H]2[C@H](C(=O)N[C@H]3CC(C)(C)Oc4ccccc43)C2(C)C)C(=N)N1` [Example 48B], 7.4 nM. `CC1(C)CC(=O)N(C(c2cccnc2)[C@H]2[C@H](C(=O)N[C@H]3CC(C)(C)Oc4ccccc43)C2(C)C)C(=N)N1` (stereo partly drawn) [Example 49A] gave a concentration giving a half-maximal response (EC50) (72 h) of 20 nM.

Molecule `CC1(C)CC(=O)N(C(c2cccnc2)[C@H]2[C@H](C(=O)N[C@H]3CC(C)(C)Oc4ccccc43)C2(C)C)C(=N)N1` (stereo partly drawn) [Example 49B] came in with an EC50 of 14 nM. This counts as double-digit nanomolar. `CC1(C)CC(=O)N([C@H](c2cccc(C#N)c2)[C@@H]2C[C@H]2C(=O)N[C@H]2CC(C)(C)Oc3ccccc32)C(=N)N1` [Example 50] had an EC50 (72 h) of 3 nM. Under “72 h”, `CC1(C)CC(=O)N([C@H](c2cccc(C#N)c2)[C@@H]2C[C@H]2C(=O)N[C@@H]2c3ccccc3OC(C)(C)[C@H]2O)C(=N)N1` [Example 51] came in with a concentration giving a half-maximal response (EC50) of 5.3 nM.

Molecule `CC1(C)CC(=O)N([C@H](c2cccc(C#N)c2)[C@@H]2C[C@H]2C(=O)N[C@H]2C[C@H](C(F)(F)F)Oc3ccccc32)C(=N)N1` [Example 52] came in with an EC50 (72 h) of 1 nM.

Molecule `CC1(C)CC(=O)N(C(c2cccc(C#N)c2)[C@@H]2C[C@H]2C(=O)NC2CC(C)(C)Oc3ccc(F)cc32)C(=N)N1` (stereo partly drawn) [Example 53A] registered an EC50 (72 h) of 3.1 nM. This EC50 is about 3.1-fold higher than that of the molecule before. `CC1(C)CC(=O)N(C(c2cccc(C#N)c2)[C@@H]2C[C@H]2C(=O)NC2CC(C)(C)Oc3ccc(F)cc32)C(=N)N1` (stereo partly drawn) [Example 53B] displayed a 50% effective concentration (EC50) of 2.1 nM. In turn, `CCC1(CC)CC(=O)N([C@H](c2cccnc2)[C@@H]2C(C)[C@H]2C(=O)N[C@H]2C[C@H](C(F)(F)F)Oc3ccccc32)C(=N)N1` (stereo partly drawn) [Example 55A] showed an EC50 (72 h) of 0.8 nM.

Where the note is “72 h”, `CCC1(CC)CC(=O)N([C@@H](c2cccnc2)[C@@H]2C(C)[C@H]2C(=O)N[C@H]2C[C@H](C(F)(F)F)Oc3ccccc32)C(=N)N1` (stereo partly drawn) [Example 55B] registered a 50% effective concentration (EC50) of 180 nM. This EC50 lies about 220-fold higher than the previous one. The molecule `CCC1(CC)CC(=O)N([C@@H](c2cccnc2)[C@@H]2C(C)[C@H]2C(=O)N[C@H]2CC(C)(C)Oc3ccccc32)C(=N)N1` (stereo partly drawn) [Example 56A] gave a concentration for a half-maximal effect (EC50) (72 h) of 65 nM. Same read-out and setting: in the case of `CCC1(CC)CC(=O)N([C@H](c2cccnc2)[C@@H]2C(C)[C@H]2C(=O)N[C@H]2CC(C)(C)Oc3ccccc32)C(=N)N1` (stereo partly drawn) [Example 56B] it was 0.7 nM. Consider `CC1[C@@H]([C@@H](c2cccnc2)N2C(=N)NC(C)(C)CC2=O)[C@@H]1C(=O)N[C@H]1CC(C)(C)Oc2ccccc21` (stereo partly drawn) [Example 57A], for which, where the note is “72 h”, the EC50 is 3.2 nM. Still for that read-out and setting: in the case of `CC1[C@@H]([C@H](c2cccnc2)N2C(=N)NC(C)(C)CC2=O)[C@@H]1C(=O)N[C@H]1CC(C)(C)Oc2ccccc21` (stereo partly drawn) [Example 57B] it was 100 nM. On the same count and under the same terms, next, `CC1(C)CC(=O)N([C@@H](c2cncc(Cl)c2)[C@@H]2C[C@H]2C(=O)N[C@H]2CC(C)(C)Oc3ccccc32)C(=N)N1` [Example 58A]: 210 nM.

For the molecule `CC1(C)CC(=O)N([C@H](c2cncc(Cl)c2)[C@@H]2C[C@H]2C(=O)N[C@H]2CC(C)(C)Oc3ccccc32)C(=N)N1` [Example 58B], the EC50 (72 h) came out at 1 nM. With `CC1(C)CC(=O)N([C@H](c2cncc(Cl)c2)[C@@H]2C[C@H]2C(=O)N[C@@H]2c3ccccc3OC(C)(C)[C@H]2O)C(=N)N1` [Example 59], it took 3.8 nM to reach a half-maximal effect (72 h) (EC50). This EC50 is about 3.8-fold higher than that of the molecule before.

As for `CC1(C)CC(=O)N([C@H](c2cncc(Cl)c2)[C@@H]2C[C@H]2C(=O)N[C@H]2C[C@H](C(F)(F)F)Oc3ccccc32)C(=N)N1` [Example 60A], a half-maximal effect (72 h) (EC50) was put at 0.5 nM. With `CC1(C)CC(=O)N([C@@H](c2cncc(Cl)c2)[C@@H]2C[C@H]2C(=O)N[C@H]2C[C@H](C(F)(F)F)Oc3ccccc32)C(=N)N1` [Example 60B], under “72 h”, the concentration for a half-maximal effect (EC50) turned out to be 100 nM.

As to `CC[C@]1(C)CC(=O)N([C@H](CCOC)[C@@H]2C[C@H]2C(=O)N[C@@H]2c3ccccc3OC(C)(C)[C@H]2O)C(=N)N1` [Example 61], under “72 h”, the concentration giving a half-maximal response (EC50) is 6.9 nM. Compared with the last molecule, the EC50 is about 14-fold lower.
